Reference: ChEMBL document CHEMBL1151997, “Structural analogues of the michellamine anti-HIV agents. Importance of the tetrahydroisoquinoline rings for biological activity” (Bioorg Med Chem Lett, 1997)

Columns and labels:
CEM-SS = assay: In vitro cytotoxicity in CEM-SS cell line up to a concentration of 100 uM.; assay type: functional, cell-based; conditions: Homo sapiens
[1] = system: Human immunodeficiency virus 1; assay: In vitro anti-HIV-1 activity in CEM-SS cytoprotection assay; No activity.; assay type: functional, organism-based

| SMILES | IC50 (CEM-SS) [µM] | EC50 [1] |
| --- | --- | --- |
| COc1cccc2c(-c3cccc([N+](=O)[O-])c3)cc(-c3cc(-c4cccc([N+](=O)[O-])c4)c4cccc(OC)c4c3O)c(O)c12 | > 100 | Not Active |
| COc1cc(OC)c2c(O)c(-c3cc(-c4cccc([N+](=O)[O-])c4)c4cc(OC)cc(OC)c4c3O)cc(-c3cccc([N+](=O)[O-])c3)c2c1 | > 100 | Not Active |
| COc1cc(C)cc2c(-c3ccc4c(c3)OCO4)cc(-c3cc(-c4ccc5c(c4)OCO5)c4cc(C)cc(OC)c4c3O)c(O)c12 | > 100 | Not Active |
| COc1cc(OC)c2c(O)c(-c3cc(-c4ccccc4)c4cc(OC)cc(OC)c4c3O)cc(-c3ccccc3)c2c1 | > 100 | Not Active |
| COc1cccc2c(-c3ccccc3)cc(-c3cc(-c4ccccc4)c4cccc(OC)c4c3O)c(O)c12 | > 100 | Not Active |
| COc1cc(C)cc2c(-c3ccccc3)cc(-c3cc(-c4ccccc4)c4cc(C)cc(OC)c4c3O)c(O)c12 | > 100 | Not Active |
| COc1cc(OC)c2c(O)c(-c3cc(-c4cccc(N)c4)c4cc(OC)cc(OC)c4c3O)cc(-c3cccc(N)c3)c2c1 | > 100 | Not Active |
| COc1cc(OC)c2c(O)c(-c3cc(-c4ccc5c(c4)OCO5)c4cc(OC)cc(OC)c4c3O)cc(-c3ccc4c(c3)OCO4)c2c1 | > 100 | Not Active |
| COc1cc(OC)c2c(O)c(-c3cc(-c4cccs4)c4cc(OC)cc(OC)c4c3O)cc(-c3cccs3)c2c1 | > 100 | Not Active |
| COc1cc(C)cc2c(-c3cccc(N)c3)cc(-c3cc(-c4cccc(N)c4)c4cc(C)cc(OC)c4c3O)c(O)c12 | > 100 | Not Active |
| COc1cc(C)cc2c(-c3cccc([N+](=O)[O-])c3)cc(-c3cc(-c4cccc([N+](=O)[O-])c4)c4cc(C)cc(OC)c4c3O)c(O)c12 | > 100 | Not Active |
| COc1cc(OC)c2c(O)c(-c3cc(-c4ccc(O)cc4O)c4cc(OC)cc(OC)c4c3O)cc(-c3ccc(O)cc3O)c2c1 | 3.9 | Not Active |
| COc1cccc2c(-c3ccc4c(c3)OCO4)cc(-c3cc(-c4ccc5c(c4)OCO5)c4cccc(OC)c4c3O)c(O)c12 | > 100 | Not Active |
| COc1cc(C)cc2c(-c3cccs3)cc(-c3cc(-c4cccs4)c4cc(C)cc(OC)c4c3O)c(O)c12 | > 100 | Not Active |
| COc1cc(C)cc2c(-c3ccc(O)cc3O)cc(-c3cc(-c4ccc(O)cc4O)c4cc(C)cc(OC)c4c3O)c(O)c12 | 2.6 | Not Active |
| COc1cccc2c(-c3cccs3)cc(-c3cc(-c4cccs4)c4cccc(OC)c4c3O)c(O)c12 | > 100 | Not Active |
| COc1cccc2c(-c3ccc(O)cc3O)cc(-c3cc(-c4ccc(O)cc4O)c4cccc(OC)c4c3O)c(O)c12 | 2.2 | Not Active |
| COc1cccc2c(-c3cccc(N)c3)cc(-c3cc(-c4cccc(N)c4)c4cccc(OC)c4c3O)c(O)c12 | > 100 | Not Active |
